Results taken from PMC3726261 (Cancer, 2012).
Entries after “also recorded” stand apart in the source; their conditions may differ. Marks after values point to notes of the source that are not given here.

Test system: patients with advanced solid malignancies
Experiment: Phase 1 dose-escalation study: safety, treatment-emergent adverse events
Type: in vivo
Conditions: for Abdominal distension (related TEAE) / Anemia (related TEAE) / Anorexia (related TEAE) / At least 1 related TEAE / Chest discomfort (related TEAE) / Constipation (related TEAE) / Cough (related TEAE) / Dyspepsia (related TEAE) / Dyspnea (related TEAE) / Edema (related TEAE) / Face edema (related TEAE) / Fatigue (related TEAE) / Fluid retention (related TEAE) / Increased appetite (related TEAE) / Insomnia (related TEAE) / Muscle spasms (related TEAE) / Myalgia (related TEAE) / Nausea (related TEAE) / Peripheral edema (related TEAE) / Pleural effusion (related TEAE) / Rash (related TEAE) / Vomiting (related TEAE) / Weight increase (related TEAE): N = 31 patients
[1] = Grade 3 (dose-limiting toxicity)
[2] = Patient 20, 0.75 mg twice daily, by cycle 3, day 1, CTCAE grade 4

Cc1cc(Oc2ccc3nc(COc4ccc(CC5SC(=O)NC5=O)cc4)n(C)c3c2)cc(C)c1N (stereo not shown) [Efatutazone]
Dose-limiting toxicities (0.10-, 0.25-, and 1.15-mg cohorts, not dose dependent): Three episodes of dose-limiting toxicities; also recorded: Three DLTs related to fluid retention
Patients with at least 1 treatment-related AE (31 patients): 100%
Grade ≥4 edema (31 treated patients): No patient
Abdominal distension (related TEAE) (Grade 1): 1 (3.2) No. (%)
Anemia (related TEAE) (Grade 1): 5 (16.1) No. (%)
Anorexia (related TEAE) (Grade 1): 3 (9.7) No. (%)
At least 1 related TEAE (Grade 1): 13 (41.9) No. (%)
Chest discomfort (related TEAE) (Grade 1): 1 (3.2) No. (%)
Constipation (related TEAE) (Grade 1): 2 (6.5) No. (%)
Cough (related TEAE) (Grade 1): 3 (9.7) No. (%)
Dyspepsia (related TEAE) (Grade 1): 2 (6.5) No. (%)
Dyspnea (related TEAE) (Grade 1): 4 (12.9) No. (%)
Edema (related TEAE) (Grade 1): 1 (3.2) No. (%)
Face edema (related TEAE) (Grade 1): 2 (6.5) No. (%)
Fatigue (related TEAE) (Grade 1): 10 (32.3) No. (%)
Fluid retention (related TEAE) (Grade 1): 2 (6.5) No. (%)
Increased appetite (related TEAE) (Grade 1): 3 (9.7) No. (%)
Insomnia (related TEAE) (Grade 1): 1 (3.2) No. (%)
Muscle spasms (related TEAE) (Grade 1): 1 (3.2) No. (%)
Myalgia (related TEAE) (Grade 1): 2 (6.5) No. (%)
Nausea (related TEAE) (Grade 1): 5 (16.1) No. (%)
Peripheral edema (related TEAE) (Grade 1): 8 (25.8) No. (%)
Pleural effusion (related TEAE) (Grade 1): 1 (3.2) No. (%)
Rash (related TEAE) (Grade 1): 2 (6.5) No. (%)
Vomiting (related TEAE) (Grade 1): 2 (6.5) No. (%)
Weight increase (related TEAE) (Grade 1): 17 (54.8) No. (%)
Abdominal distension (related TEAE) (Grade 2): 1 (3.2) No. (%)
Anemia (related TEAE) (Grade 2): 3 (9.7) No. (%)
Anorexia (related TEAE) (Grade 2): 0 No. (%)
At least 1 related TEAE (Grade 2): 11 (35.5) No. (%)
Chest discomfort (related TEAE) (Grade 2): 0 No. (%)
Constipation (related TEAE) (Grade 2): 0 No. (%)
Cough (related TEAE) (Grade 2): 1 (3.2) No. (%)
Dyspepsia (related TEAE) (Grade 2): 0 No. (%)
Dyspnea (related TEAE) (Grade 2): 0 No. (%)
Edema (related TEAE) (Grade 2): 0 No. (%)
Face edema (related TEAE) (Grade 2): 0 No. (%)
Fatigue (related TEAE) (Grade 2): 2 (6.5) No. (%)
Fluid retention (related TEAE) (Grade 2): 1 (3.2) No. (%)
Increased appetite (related TEAE) (Grade 2): 0 No. (%)
Insomnia (related TEAE) (Grade 2): 1 (3.2) No. (%)
Muscle spasms (related TEAE) (Grade 2): 1 (3.2) No. (%)
Myalgia (related TEAE) (Grade 2): 0 No. (%)
Nausea (related TEAE) (Grade 2): 1 (3.2) No. (%)
Peripheral edema (related TEAE) (Grade 2): 7 (22.6) No. (%)
Pleural effusion (related TEAE) (Grade 2): 1 (3.2) No. (%)
Rash (related TEAE) (Grade 2): 0 No. (%)
Vomiting (related TEAE) (Grade 2): 1 (3.2) No. (%)
Weight increase (related TEAE) (Grade 2): 0 No. (%)
Edema (related TEAE) [1]: 2 (6.5) ^b No. (%)
Pleural effusion (related TEAE) [1]: 1 (3.2) ^b No. (%)
Abdominal distension (related TEAE) (Grade 3): 0 No. (%)
Anemia (related TEAE) (Grade 3): 4 (12.9) No. (%)
Anorexia (related TEAE) (Grade 3): 0 No. (%)
At least 1 related TEAE (Grade 3): 6 (19.4) No. (%)
Chest discomfort (related TEAE) (Grade 3): 1 (3.2) No. (%)
Constipation (related TEAE) (Grade 3): 0 No. (%)
Cough (related TEAE) (Grade 3): 0 No. (%)
Dyspepsia (related TEAE) (Grade 3): 0 No. (%)
Dyspnea (related TEAE) (Grade 3): 1 (3.2) No. (%)
Face edema (related TEAE) (Grade 3): 0 No. (%)
Fatigue (related TEAE) (Grade 3): 2 (6.5) No. (%)
Fluid retention (related TEAE) (Grade 3): 0 No. (%)
Increased appetite (related TEAE) (Grade 3): 0 No. (%)
Insomnia (related TEAE) (Grade 3): 0 No. (%)
Muscle spasms (related TEAE) (Grade 3): 0 No. (%)
Myalgia (related TEAE) (Grade 3): 0 No. (%)
Nausea (related TEAE) (Grade 3): 0 No. (%)
Peripheral edema (related TEAE) (Grade 3): 1 (3.2) No. (%)
Rash (related TEAE) (Grade 3): 0 No. (%)
Vomiting (related TEAE) (Grade 3): 0 No. (%)
Weight increase (related TEAE) (Grade 3): 0 No. (%)
Abdominal distension (related TEAE) (Grade 4): 0 No. (%)
Anemia (related TEAE) (Grade 4): 0 No. (%)
Anorexia (related TEAE) (Grade 4): 0 No. (%)
At least 1 related TEAE (Grade 4): 1 (3.2) ^a No. (%)
Chest discomfort (related TEAE) (Grade 4): 0 No. (%)
Constipation (related TEAE) (Grade 4): 0 No. (%)
Cough (related TEAE) (Grade 4): 0 No. (%)
Dyspepsia (related TEAE) (Grade 4): 0 No. (%)
Dyspnea (related TEAE) (Grade 4): 0 No. (%)
Edema (related TEAE) (Grade 4): 0 No. (%)
Face edema (related TEAE) (Grade 4): 0 No. (%)
Fatigue (related TEAE) (Grade 4): 0 No. (%)
Fluid retention (related TEAE) (Grade 4): 0 No. (%)
Increased appetite (related TEAE) (Grade 4): 0 No. (%)
Insomnia (related TEAE) (Grade 4): 0 No. (%)
Muscle spasms (related TEAE) (Grade 4): 0 No. (%)
Myalgia (related TEAE) (Grade 4): 0 No. (%)
Nausea (related TEAE) (Grade 4): 0 No. (%)
Peripheral edema (related TEAE) (Grade 4): 0 No. (%)
Pleural effusion (related TEAE) (Grade 4): 0 No. (%)
Rash (related TEAE) (Grade 4): 0 No. (%)
Vomiting (related TEAE) (Grade 4): 0 No. (%)
Weight increase (related TEAE) (Grade 4): 0 No. (%)
Abdominal distension (related TEAE) (Overall): 2 (6.5) No. (%)
Anemia (related TEAE) (Overall): 12 (38.7) No. (%)
Anorexia (related TEAE) (Overall): 3 (9.7) No. (%)
At least 1 related TEAE (Overall): 31 (100) No. (%)
Chest discomfort (related TEAE) (Overall): 2 (6.5) No. (%)
Constipation (related TEAE) (Overall): 2 (6.5) No. (%)
Cough (related TEAE) (Overall): 4 (12.9) No. (%)
Dyspepsia (related TEAE) (Overall): 2 (6.5) No. (%)
Dyspnea (related TEAE) (Overall): 5 (16.1) No. (%)
Edema (related TEAE) (Overall): 3 (9.7) No. (%)
Face edema (related TEAE) (Overall): 2 (6.5) No. (%)
Fatigue (related TEAE) (Overall): 14 (45.2) No. (%)
Fluid retention (related TEAE) (Overall): 3 (9.7) No. (%)
Increased appetite (related TEAE) (Overall): 3 (9.7) No. (%)
Insomnia (related TEAE) (Overall): 2 (6.5) No. (%)
Muscle spasms (related TEAE) (Overall): 2 (6.5) No. (%)
Myalgia (related TEAE) (Overall): 2 (6.5) No. (%)
Nausea (related TEAE) (Overall): 6 (19.4) No. (%)
Peripheral edema (related TEAE) (Overall): 16 (51.6) No. (%)
Pleural effusion (related TEAE) (Overall): 3 (9.7) No. (%)
Rash (related TEAE) (Overall): 2 (6.5) No. (%)
Vomiting (related TEAE) (Overall): 3 (9.7) No. (%)
Weight increase (related TEAE) (Overall): 17 (54.8) No. (%)
Serum cholesterol, peak [2]: 515 mg/dL
Serum triglycerides, peak [2]: 4525 mg/dL
Cardiac dysfunction (serial electrocardiograms and echocardiograms) (all dose levels): did not reveal any evidence of cardiac dysfunction; also recorded: no measurable cardiotoxicity
Patients with anemia (treatment-related AE) (all dose levels): 38.7%
Patients with fatigue (treatment-related AE) (all dose levels): 45.2%
Patients with peripheral edema (all dose levels): 51.6%
Patients with weight increase (treatment-related AE) (all dose levels): 54.8%
Maximum tolerated dose (MTD) (doses 0.10 to 1.15 mg PO twice daily): not reached
Patients with grade 4 TEAEs (regardless of attribution (bronchospasm; hypercholesterolemia and hypertriglyceridemia)): Two patients
